This passage reports EC50 results from patent US10485795B2, “FXR (NR1H4) binding and activity modulating compounds” (Gilead Sciences, Inc., priority 2011, dated 2019).

Each structure is given as a SMILES string. Like-named read-outs stand apart in the source and are kept apart here. Some results are limits rather than exact numbers.

In assay [1] the target is T1, FXR ligand binding domain (Homo sapiens, UniProt Q96RI1).
T1 construct: expressed in transfected cells; host or cells: HEK293 (DSMZ), transient transfection with a pCMV-BD construct
T1 sequence (Q96RI1 187-472 isoform Q96RI1-2): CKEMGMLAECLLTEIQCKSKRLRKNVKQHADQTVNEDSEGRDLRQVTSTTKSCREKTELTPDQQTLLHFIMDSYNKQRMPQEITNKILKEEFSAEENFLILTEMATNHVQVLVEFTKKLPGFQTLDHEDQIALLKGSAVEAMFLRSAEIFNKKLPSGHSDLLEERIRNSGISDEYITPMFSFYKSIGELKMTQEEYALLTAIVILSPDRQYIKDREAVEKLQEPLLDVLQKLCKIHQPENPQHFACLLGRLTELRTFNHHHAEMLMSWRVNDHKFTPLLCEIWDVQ
Kind of assay: Mammalian One Hybrid (M1H) assay, Gal4 reporter in HEK293 cells. The class given is cell-based. Here is the method: Determination of a ligand mediated Gal4 promoter driven transactivation to quantify ligand binding mediated activation of FXR was performed as follows: The cDNA part encoding the FXR ligand binding domain was cloned into vector pCMV-BD (Stratagene) as a fusion to the yeast GAL4 DNA binding domain under the control of the CMV promoter. […] The plasmid pFR-Luc (Stratagene) was used as the reporter plasmid, containing a synthetic promoter with five tandem repeats of the yeast GAL4 binding sites, driving the expression of the Photinus pyralis (American firefly) luciferase gene as the reporter gene. In order to improve experimental accuracy the plasmid pRL-CMV (Promega) was cotransfected. pRL-CMV contains the constitutive CMV promoter, controlling the expression of the Renilla reniformis luciferase. All Gal4 reporter gene assays were done in HEK293 cells (obtained from DSMZ, Braunschweig, Germany) grown in MEM with L-Glutamine and Earle's BSS supplemented with 10% fetal bovine serum, 0.1 mM nonessential amino acids, 1 mM sodium pyruvate, and 100 units Penicillin/[…] per mL at 37° C. in 5% CO2. Medium and supplements were obtained from Invitrogen. For the assay, […] were plated per well in 96 well plates in 100 μL per well MEM without Phenol Red and L-Glutamine and with Earle's BSS supplemented with 10% charcoal/dextran treated FBS (HyClone, South Logan, Utah), 0.1 mM nonessential amino acids, 2 mM glutamine, 1 mM sodium pyruvate, and 100 units Penicillin/[…] per mL, incubated at 37° C. in 5% CO2. The following day the cells were >90% confluence. […] MEM with the same composition as used for plating cells was added 2-4 h after addition of transfection mixture. Then compound stocks, prediluted in MEM were added (final vehicle concentration not exceeding 0.1%). […] All experiments were done in triplicates.

Assay [2] addresses T2, human FXR alpha ligand binding domain (Homo sapiens, UniProt Q96RI1).
T2 construct: made in house; host or cells: E. coli BL21(DE3), vector pDEST15
T2 sequence (Q96RI1 187-472 isoform Q96RI1-2): T1 sequence (Q96RI1 187-472 isoform Q96RI1-2)
Kind of assay: FRET activity assay (ligand mediated cofactor peptide interaction). The class given is biochemical. Here is the method: Determination of a ligand mediated cofactor peptide interaction to quantify ligand binding to the nuclear receptor FXR was performed as follows: Preparation of human FXR alpha ligand binding domain: The human FXRalpha LBD was expressed in E. coli strain BL21(DE3) as an N-terminally GST tagged fusion protein. The DNA encoding the FXR ligand binding domain was cloned into vector pDEST15 (Invitrogen). Expression was under control of an IPTG inducible T7 promoter. The amino acid boundaries of the ligand binding domain were amino acids 187-472 of Database entry NM_005123 (RefSeq). Expression and purification of the FXR-LBD: An overnight preculture of a transformed E. coli strain was diluted 1:20 in LB-Ampicillin medium and grown at 30° C. to an optical density of OD600=0.4-0.6. Gene expression was then induced by addition of 0.5 mM IPTG. Cells were incubated an additional 6 h at 30° C., 180 rpm. Cells were collected by centrifugation (7000×g, 7 min, rt). Per liter of original cell culture, cells were resuspended in 10 mL lysis buffer (50 mM Glucose, 50 mM Tris pH 7.9, 1 mM EDTA and 4 mg/mL lysozyme) and left on ice for 30 min. Cells were then subjected to sonication and cell debris removed via centrifugation (22000×g, 30 min, 4° C.). Per 10 mL of supernatant 0.5 mL prewashed Glutathione 4B sepharose slurry (Qiagen) was added and the suspension kept slowly rotating for 1 h at 4° C. Glutathione 4B sepharose beads were pelleted by centrifugation (2000×g, 15 sec, 4° C.) and washed twice in wash buffer (25 mM Tris, 50 mM KCl, 4 mM MgCl2 and 1M NaCl). The pellet was resuspended in 3 mL elution buffer per liter of original culture (elution buffer: 20 mM Tris, 60 mM KCl, 5 mM MgCl2 and 80 mM glutathione added immediately prior to use as powder). The suspension was left rotating for 15 min at 4° C., the beads pelleted and eluted again with half the volume of elution buffer than the first time. The eluates were pooled and dialysed overnight in 20 mM Hepes buffer (pH 7.5) containing 60 mM KCl, 5 mM MgCl2 as well as 1 mM dithiothreitol and 10% (v/v) glycerol. The protein was analysed by SDS-Page.
The method measures the ability of putative ligands to modulate the interaction between the purified bacterial expressed FXR ligand binding domain (LBD) and a synthetic biotinylated peptide based on residues 676-700 of SRC-1 (LCD2, 676-700). The sequence of the peptide used was B-[…]-COOH where the N-terminus was biotinylated (B). The ligand binding domain (LBD) of FXR was expressed as fusion protein with GST in BL-21 cells using the vector pDEST15. Cells were lysed by sonication, and the fusion proteins purified over glutathione sepharose (Pharmacia) according to the manufacturers instructions. For screening of compounds for their influence on the FXR-peptide interaction, the Perkin Elmer LANCE technology was applied. This method relies on the binding dependent energy transfer from a donor to an acceptor fluorophor attached to the binding partner of interest. For ease of handling and reduction of background from compound fluorescence LANCE technology makes use of generic fluorophore labels and time resolved detection Assays were done in a final volume of 25 μL in a 384 well plate, in a Tris-based buffer (20 mM Tris-HCl pH 7.5; 60 mM KCl, 5 mM MgCl2; 35 ng/μL BSA), containing 20-60 ng/well recombinantly expressed FXR-LBD fused to GST, 200-600 nM N-terminally biotinylated peptide, representing SRC1 aminoacids 676-700, 200 ng/well Streptavidin-xIAPC conjugate (Prozyme) and 6-10 ng/well Eu W1024-antiGST (Perkin Elmer). DMSO content of the samples was kept at 1%. After generation of the assay mix and diluting the potentially FXR modulating ligands, the assay was equilibrated for 1 h in the dark at rt in FIA-plates black 384 well (Greiner). The LANCE signal was detected by a Perkin Elmer VICTOR2VTM Multilabel Counter. The results were visualized by plotting the ratio between the emitted light at 665 and 615 nm. […]

Where [3] appears, read: Gal4-FXR LBD transactivation, HEK293 cells, read-out: EC50 potency range (Group), M1H assay.
[4] abbreviates: FXR-LBD/SRC-1 peptide interaction, LANCE, read-out: EC50 (Group), FRET activity assay.

As for `Cc1cc(C2CC(O)(c3ccc(OCc4c(-c5c(Cl)cccc5Cl)noc4C4CC4)cc3Cl)C2)cc(C)c1C(=O)O` (single isomer, unassigned) [13/2], the EC50 in assay [1] (setting [3]) and in assay [2] (setting [4]) was over 100 nM in each case.

On to `COc1ccc(C(=O)O)cc1C1CC(O)(c2ccc(OCc3c(-c4c(Cl)cccc4Cl)noc3C3CC3)cc2Cl)C1` (single isomer, unassigned) [13/3], for which the EC50 in assay [1] (setting [3]) and in assay [2] (setting [4]) was 25 to 100 nM throughout.

As to `Cc1ccc(C(=O)O)cc1C1CC(O)(c2ccc(OCc3c(-c4c(Cl)cccc4Cl)noc3C3CC3)cc2Cl)C1` (single isomer, unassigned) [13/4], the EC50 in assay [1] (setting [3]) was under 25 nM; in assay [2] (setting [4]) it was 25 to 100 nM.

`Cc1cc(C(=O)O)cc(C2CC(O)(c3ccc(OCc4c(-c5c(Cl)cccc5Cl)noc4C4CC4)cc3Cl)C2)c1` (single isomer, unassigned) [13/5]: the EC50 is under 25 nM in assay [1] (setting [3]) and 25 to 100 nM in assay [2] (setting [4]).

Regarding `Cc1ccc(C2CC(O)(c3ccc(OCc4c(-c5c(Cl)cccc5Cl)noc4C4CC4)cc3Cl)C2)cc1C(=O)O` (single isomer, unassigned) [13/6], the EC50 is under 25 nM in assay [1] (setting [3]) and over 100 nM in assay [2] (setting [4]).

For the molecule `O=C(O)c1cccc(N2CC(O)(c3ccc(OCc4c(-c5c(Cl)cccc5Cl)noc4C4CC4)cc3Cl)C2)c1` (single isomer, unassigned) [13/7], the EC50 in assay [1] (setting [3]) and in assay [2] (setting [4]) was 25 to 100 nM throughout.

Consider `O=C(O)c1cncc(N2CC(O)(c3ccc(OCc4c(-c5c(Cl)cccc5Cl)noc4C4CC4)cc3Cl)C2)c1` (single isomer, unassigned) [13/8], for which the results for the EC50 in assay [1] (setting [3]) and in assay [2] (setting [4]) were over 100 nM and under 25 nM, respectively.

For the molecule `O=C(O)c1ccnc(N2CC(O)(c3ccc(OCc4c(-c5c(Cl)cccc5Cl)noc4C4CC4)cc3Cl)C2)c1` (single isomer, unassigned) [13/9], the EC50 in assay [1] is over 100 nM; in assay [2], under 25 nM.

Regarding `O=C(O)c1ccc(C2CC(O)(c3ccc(OCc4c(-c5c(Cl)cccc5Cl)noc4C4CC4)cc3Cl)C2)cc1` (single isomer, unassigned) [Example 13/1], the EC50 in assay [1] (setting [3]) and in assay [2] (setting [4]) was 25 to 100 nM in each case.

On to `CC(C)n1nc(C(=O)NCCS(=O)(=O)O)cc1C1CC(O)(c2ccc(OCc3c(-c4c(Cl)cccc4Cl)noc3C3CC3)cc2Cl)C1` (stereo not drawn) [14/2], for which the EC50 in assay [2] (setting [4]) is under 25 nM.

For the molecule `COC(=O)c1cccc([C@H]2C[C@](O)(c3ccc(OCc4c(-c5c(Cl)cccc5Cl)noc4C4CC4)cc3Cl)C2)c1` [Example 1, Methyl 3-((1s,3s)-3-(2-chloro-4-((5-cyclopropyl-3-(2,6-dichlorophenyl)isoxazol-4-yl)methoxy)phenyl)-3-hydroxycyclobutyl)benzoate], the EC50 is over 100 nM in assay [1] (setting [3]) and 25 to 100 nM in assay [2] (setting [4]).

With `O=C(O)c1cccc([C@H]2C[C@](O)(c3ccc(OCc4c(-c5c(Cl)cccc5Cl)noc4C4CC4)cc3Cl)C2)c1` [Example 2, 3-((1s,3s)-3-(2-Chloro-4-((5-cyclopropyl-3-(2,6-dichlorophenyl)isoxazol-4-yl)methoxy)phenyl)-3-hydroxycyclobutyl)benzoic Acid], the EC50 in assay [1] (setting [3]) and in assay [2] (setting [4]) was 25 to 100 nM in each case.

With `CS(=O)(=O)NC(=O)c1cccc([C@H]2C[C@](O)(c3ccc(OCc4c(-c5c(Cl)cccc5Cl)noc4C4CC4)cc3Cl)C2)c1` [Example 4, 3-((1s,3s)-3-(2-Chloro-4-((5-cyclopropyl-3-(2,6-dichlorophenyl)isoxazol-4-yl)methoxy)phenyl)-3-hydroxycyclobutyl)-N-(methylsulfonyl)benzamide], the half-maximal effective concentration (EC50) is over 100 nM in assay [1] (setting [3]) and under 25 nM in assay [2] (setting [4]).

For `NS(=O)(=O)c1cccc(C2CC(O)(c3ccc(OCc4c(-c5c(Cl)cccc5Cl)noc4C4CC4)cc3Cl)C2)c1` (stereo not drawn) [Example 5, 3-(3-(2-Chloro-4-((5-cyclopropyl-3-(2,6-dichlorophenyl)isoxazol-4-yl)methoxy)phenyl)-3-hydroxycyclobutyl)benzenesulfonamide], the EC50 in assay [1] (setting [3]) is over 100 nM; in assay [2] (setting [4]), 25 to 100 nM.

Regarding `CS(=O)(=O)c1cccc(C2CC(O)(c3ccc(OCc4c(-c5c(Cl)cccc5Cl)noc4C4CC4)cc3Cl)C2)c1` (stereo not drawn) [Example 6, 1-(2-Chloro-4-((5-cyclopropyl-3-(2,6-dichlorophenyl)isoxazol-4-yl)methoxy)phenyl)-3-(3-(methylsulfonyl)phenyl)cyclobutanol], the figures for the EC50 in assay [1] (setting [3]) and in assay [2] (setting [4]) were over 100 nM and 25 to 100 nM, respectively.

In the case of `CC(C)n1nc(C(=O)O)cc1[C@H]1C[C@](O)(c2ccc(OCc3c(-c4c(Cl)cccc4Cl)noc3C3CC3)cc2Cl)C1` [Example 8, 5-((1s,3s)-3-(2-Chloro-4-((5-cyclopropyl-3-(2,6-dichlorophenyl)isoxazol-4-yl)methoxy)phenyl)-3-hydroxycyclobutyl)-1-isopropyl-1H-pyrazole-3-carboxylic Acid], the 50% effective concentration (EC50) is 25 to 100 nM in assay [1] (setting [3]) and under 25 nM in assay [2] (setting [4]).

On to `CC(C)n1nc(C(=O)O)cc1[C@H]1C[C@@](O)(c2ccc(OCc3c(-c4c(Cl)cccc4Cl)noc3C3CC3)cc2Cl)C1` [Example 8A, 5-((1r,3r)-3-(2-Chloro-4-((5-cyclopropyl-3-(2,6-dichlorophenyl)isoxazol-4-yl)methoxy)phenyl)-3-hydroxycyclobutyl)-1-isopropyl-1H-pyrazole-3-carboxylate], for which the EC50 in assay [1] (setting [3]) and in assay [2] (setting [4]) was 25 to 100 nM throughout.

A word on the EC50: it is the midpoint of the concentration-response curve.
